Measured values published in patent US10568921B1, “Extract of Vicia faba beans” (priority 2018, dated 2020).
Several values for one entry are separate records, joined by “and”; a condition that tells them apart may be missing. Equal values may be shown once.

System: strychnine-induced convulsions
Test: Strychnine-induced convulsions in mice, i.p. pretreatment with test substance
Format: in vivo, BALB/c mice
[1] = 50 mg/kg i.p. + strychnine 0.45 mg/kg i.p., individual mice No. 1-10

Which results are given for CCC1(c2ccccc2)C(=O)NC(=O)NC1=O [Phenobarbitone, phenobarbitone]?
Survival recovered time after strychnine injection [1]: 80 minutes (3×) and 90 minutes and 70 minutes (3×) and 75 minutes (3×); Time to first convulsion [1]: 5 minutes and 7 minutes (3×) and 6.5 minutes and 8 minutes (2×) and 9 minutes (2×) and 10 minutes; Survival recovered time after strychnine injection, mean (50 mg/kg i.p. + strychnine 0.45 mg/kg i.p., mean of 10 mice): 76.5 ± 5.58 min; Protection against strychnine-induced convulsions (in words) (50 mg/kg i.p. before strychnine (A-1 twenty minutes, phenobarbitone 15 minutes), mice): protected against the strychnine-induced convulsions, completely
